Experimental data: patent US8980226B2, “Aerosolized fosfomycin/aminoglycoside combination for the treatment of bacterial respiratory infections” (Gilead Sciences, Inc., priority 2004, dated 2015)

Key:
[1] = system: 100 P. aeruginosa strains isolated from lung sputum samples from cystic fibrosis patients; experiment: MIC50 and MIC90 for 100 P. aeruginosa strains, without mucin; type: cell-based; conditions: Pseudomonas aeruginosa
Protocol: (§1) The MICs of fosfomycin alone, tobramycin alone, or combinations of fosfomycin plus tobramycin were determined by the agar-plate dilution method according to NCCLS guidelines (NCCLS, 2003). Bacterial strains were streaked onto Trypic Soy Agar plates (PML Microbiologicals, Wilsonville, Oreg.) containing 5% defibrinated sheep blood (hereafter referred to as blood agar plates) and incubated overnight at 35° C. Two to three bacterial colonies from the overnight cultures were inoculated into 3 mL of sterile normal saline, vortexed briefly, and adjusted to a 0.5 McFarland standard (NCCLS, 2003). The bacterial suspension was diluted 1:40 in sterile normal saline and served as the inoculum. Mueller-Hinton agar plates (hereafter referred to as MHA) were prepared by combining 16 g of agarose (Becton-Dickinson, Sparks, Md.), 22 g of Mueller-Hinton broth powder (Becton-Dickinson, Sparks, Md.), and adjusted to 1 L with distilled water. The agar was sterilized by autoclaving, cooled to 55° C., and supplemented with 25 μg/mL of glucose-6-phosphate (Sigma-Aldrich, St. Louis, Mo.). Twenty-five mL of cooled agar was aliquoted into 50 mL conical tubes and supplemented with appropriate concentrations of antibiotic to achieve concentrations ranging from 0.06 μg/mL to 512 μg/mL. After gently mixing the agar and antibiotic, the suspension was poured into sterile 100 mm petri dishes and allowed to solidify at room temperature. The antibiotic agar plates were inoculated with approximately 2×10^4 CFU/spot with a 48-point inoculator (Sigma-Aldrich, St. Louis, Mo.). The MIC was defined as the lowest concentration of antibiotic (s) that prevented visible growth after incubation for 18-20 hours at 35° C. The efficacy of a particular antibiotic or antibiotic combination on large populations of P. aeruginosa was determined by calculating the MIC50 and MIC90 values. The MIC50 value was defined as the concentration of antibiotic(s) which inhibited 50% of the P. aeruginosa strains. The MIC90 value was defined as the concentration of antibiotic(s) which inhibited 90% of the P. aeruginosa strains (Wiedemann and Grimm, 1996).

[2] = system: 100 P. aeruginosa strains isolated from lung sputum samples from cystic fibrosis patients; experiment: MIC50 and MIC90 for 100 P. aeruginosa strains, CF mucin binding model (+mucin); type: cell-based; conditions: Pseudomonas aeruginosa; for MIC90: read-out: MIC90 Mucin (+)
Protocol: as §1
The MICs of fosfomycin alone, tobramycin alone, or combinations of fosfomycin plus tobramycin were determined for P. aeruginosa strains in the presence of porcine gastric mucin to evaluate the effect of mucin and protein binding on antibiotic activity. Methodologies were identical to that described in Example 5, Method A, with the exception that 2% (weight/volume) porcine gastric mucin (Sigma Chemical Co., St. Louis, Mo.) was added to the MHA prior to autoclaving.

[3] = system: susceptible P. aeruginosa; conditions: typical values, literature; cited from earlier work
[4] = cited from earlier work
[5] = system: E. coli, Proteus spp., Salmonella spp., Shigella spp., and S. marcescens; conditions: Forsgren and Walder, 1983; cited from earlier work
[6] = in vivo; cited from earlier work
[7] = 100 P. aeruginosa strains, 2% porcine gastric mucin

SMILES	MIC50 [1] [mg/L]	MIC90 [1] [mg/L]	MIC50 [2, 7] [mg/L]	MIC90 [2, 7] [mg/L]	MICs of susceptible P. aeruginosa [3]	sputum levels ([4]; aerosol administration) [µg/mL]	oral absorption ([4]; in vivo, po)	plasma half-life ([4]; parenteral administration) [h]	MIC90 [2] [mg/L]	fosfomycin concentrations at which the species are generally inhibited [5] [µg/mL]	concentrations in normal lung [6] [µg/mL]	peak serum concentrations [6] [µg/mL]	time of peak serum concentrations [6] [h]
NC[C@H]1O[C@H](O[C@H]2[C@H](O)[C@@H](O[C@H]3O[C@H](CO)[C@@H](O)[C@H](N)[C@H]3O)[C@H](N)C[C@@H]2N)[C@H](N)C[C@@H]1O [Tobramycin]	2	16	16	64	less than 2 μg/mL	≥ 1000	poorly absorbed orally	1 to 2					
C[C@@H]1O[C@@H]1P(=O)(O)O [Fosfomycin]	64	≥ 512	64						128	≤ 64	1 to 13	25 to 95	1 to 2
